In BindingDB's records for doi:10.1021/np8001628 (University of Utah, 2008):
Structures can show the parent of a compound that is named as a salt.

Molecular target: Transcription factor p65 (Human, UniProt Q04206)
Assay: Inhibition of IL1-induced NF-kappaB P65 activation in human osteoarthritic primary chondrocytes preincubated 2 hrs before addition of IL1 by ELISA

Chain of Transcription factor p65 (Q04206 whole entry): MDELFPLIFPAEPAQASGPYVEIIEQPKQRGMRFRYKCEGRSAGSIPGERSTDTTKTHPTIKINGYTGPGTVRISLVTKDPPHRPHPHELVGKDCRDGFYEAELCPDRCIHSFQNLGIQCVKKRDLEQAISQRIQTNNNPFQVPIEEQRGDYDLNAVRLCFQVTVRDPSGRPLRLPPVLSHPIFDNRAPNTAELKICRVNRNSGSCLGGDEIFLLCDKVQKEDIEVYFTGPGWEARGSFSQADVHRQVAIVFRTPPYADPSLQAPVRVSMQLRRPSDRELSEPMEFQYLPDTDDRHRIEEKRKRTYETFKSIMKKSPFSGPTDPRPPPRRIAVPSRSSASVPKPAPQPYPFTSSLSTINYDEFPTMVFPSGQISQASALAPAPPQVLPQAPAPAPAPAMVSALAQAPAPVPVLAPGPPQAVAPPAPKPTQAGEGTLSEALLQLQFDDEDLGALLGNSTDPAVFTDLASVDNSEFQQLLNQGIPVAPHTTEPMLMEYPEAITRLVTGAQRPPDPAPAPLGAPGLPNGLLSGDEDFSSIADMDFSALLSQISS

| EC50 | SMILES |
| --- | --- |
| 12 µM | C=C(C)C(C)(C)C(C)CC[C@@H](C)[C@H]1CC[C@@]2(C)[C@@H]3C[C@H](OS(=O)(=O)O)[C@H]4[C@@H](O)[C@H](OS(=O)(=O)O)[C@@H](OS(=O)(=O)O)C[C@]4(C)C3=CC[C@]12C (some centres undefined) [Spheciosterol sulfate C] |
| 12 µM | CC(C)C1(CC[C@@H](C)[C@H]2CC[C@@]3(C)[C@@H]4C[C@H](OS(=O)(=O)O)[C@H]5[C@@H](O)[C@H](OS(=O)(=O)O)[C@@H](OS(=O)(=O)O)C[C@]5(C)C4=CC[C@]23C)CC1C (some centres undefined) [Topsentiasterol sulfate E] |
| 12 µM | C=C(C)C(CC[C@@H](C)[C@H]1CC[C@@]2(C)[C@@H]3C[C@H](OS(=O)(=O)O)[C@H]4[C@@H](O)[C@H](OS(=O)(=O)O)[C@@H](OS(=O)(=O)O)C[C@]4(C)C3=CC[C@]12C)C(C)C (some centres undefined) [Spheciosterol sulfate B] |
| 12 µM | C=C(C)C(CC)CC[C@@H](C)[C@H]1CC[C@@]2(C)[C@@H]3C[C@H](OS(=O)(=O)O)[C@H]4[C@@H](O)[C@H](OS(=O)(=O)O)[C@@H](OS(=O)(=O)O)C[C@]4(C)C3=CC[C@]12C (some centres undefined) [Spheciosterol sulfate A] |
